Source: the NIST ThermoML archive (doi:10.1007/s10765-018-2359-2)

Columns and labels:
[1] = 100 kPa, Liquid; for thermal conductivity: transient hot wire
[2] = xn = mol fraction of the nth substance listed; conditions: 100 kPa, Liquid; for thermal conductivity: transient hot wire

O [water]
[1]
Conditions | thermal conductivity [W/m/K]
302.39 K | 0.6187
314.31 K | 0.6334
333.54 K | 0.656
353.53 K | 0.67

CCOP(=O)([O-])OCC.CCn1cc[n+](C)c1 [1-ethyl-3-methylimidazolium diethyl phosphate] + O
[2]
Conditions | mass density, x1 = 0.2 [kg/m3] | mass density, x1 = 0.4 [kg/m3] | mass density, x1 = 0.6 [kg/m3] | mass density, x1 = 0.8 [kg/m3] | mass density, x1 = 1 [kg/m3] | thermal conductivity, x1 = 0.2 [W/m/K] | thermal conductivity, x1 = 0.4 [W/m/K] | thermal conductivity, x1 = 0.6 [W/m/K] | thermal conductivity, x1 = 0.8 [W/m/K] | thermal conductivity, x1 = 1 [W/m/K]
303.15 K | 1133.7 | 1137.4 | 1139.3 | 1143.2 | 1144.9 | – | – | – | – | –
313.15 K | 1126 | 1131.3 | 1133.3 | 1137.2 | 1139.2 | 0.2341 | 0.1964 | 0.1849 | 0.1783 | 0.1745
333.15 K | 1112.4 | 1118.3 | 1121.1 | 1124.4 | 1127.2 | – | – | – | – | –
353.15 K | 1098.8 | 1105.7 | 1108.9 | 1118 | 1115.2 | – | – | – | – | –

CCOP(=O)([O-])OCC.CCn1cc[n+](C)c1 [1-ethyl-3-methylimidazolium diethyl phosphate]
[1]
Conditions | mass density [kg/m3] | thermal conductivity [W/m/K]
303.15 K | 1144.9 | –
313.15 K | 1139.2 | 0.1745
333.15 K | 1127.2 | –
353.15 K | 1115.2 | –
